Reference: patent US20200000872A1, “A COMPOSITION COMPRISING AT LEAST ONE GNRH ANTAGONIST” (ANTEV LIMITED, priority 2017, published 2020)
Structures can show the parent of a compound that is named as a salt. Non-standard residues stand in square brackets, D forms with d. Residues, ends and D or L forms follow the SMILES beside them. Phe(4-Cl) = N[C@@H](Cc1ccc(Cl)cc1)C(=O)O; dPhe(4-Cl) = N[C@H](Cc1ccc(Cl)cc1)C(=O)O; d2Nal = N[C@H](Cc1ccc2ccccc2c1)C(=O)O; d(hCit) = NC(=O)NCCCC[C@@H](N)C(=O)O; Lys(iPr) = CC(C)NCCCC[C@H](N)C(=O)O; d3Pal = N[C@H](Cc1cccnc1)C(=O)O

Columns and labels:
[1] = Phase I study D-84812-Z012, single s.c. injection: safety and tolerability; format: in vivo, human; conditions: doses of up to 90 mg, 32 healthy male volunteers
[2] = compared with degarelix; cited from earlier work
[3] = Phase I study D-84812-Z012, single s.c. injection: pharmacokinetics of teverelix; format: in vivo, human; conditions: between the 60 mg and 90 mg doses
[4] = Phase I study EP-24332T-A004, repeated s.c. injections: safety and tolerability; format: in vivo, human; conditions: 2 s.c. doses of 60 mg or 90 mg at 24 h or 48 h interval
Procedure: In a second Phase I study (EP-24332T-A004), a second injection was administered 24 h or 48 h after the first in order to increase and prolong the initial peak, as well as increase the teverelix level and consequently the number of subjects castrated. As the previous Phase I study had shown 10 mg and 30 mg to be insufficient to provide a long-term suppression, 2 doses of 60 mg or 90 mg (6 subjects per group) or placebo (4 subjects) were administered at a 24 h interval and 2 doses of 90 mg at a 48 h interval. […] No critical safety findings were reported. […] The protocol of the study included 6 subjects who received 90 mg Teverelix TFA on D1; D2; D3.

Structure (SMILES)	tolerability [1]	local irritation at the administration site [2]	dose proportionality [3]	local reactions at the injection sites [4]	tolerability [4]
CC(=O)N[C@H](Cc1ccc2ccccc2c1)C(=O)N[C@H](Cc1ccc(Cl)cc1)C(=O)N[C@H](Cc1cccnc1)C(=O)N[C@@H](CO)C(=O)N[C@@H](Cc1ccc(O)cc1)C(=O)N[C@H](CCCCNC(N)=O)C(=O)N[C@@H](CC(C)C)C(=O)N[C@@H](CCCCNC(C)C)C(=O)N1CCC[C@H]1C(=O)N[C@H](C)C(N)=O [Teverelix TFA, teverelix trifluoroacetate] (Ac-[d2Nal][dPhe(4-Cl)][d3Pal]SY[d(hCit)]L[Lys(iPr)]P[dA]-NH2)	tolerated well	less local irritation at the administration site than degarelix	demonstrated		
CC(=O)N[C@H](Cc1ccc2ccccc2c1)C(=O)N[C@@H](Cc1ccc(Cl)cc1)C(=O)N[C@H](Cc1cccnc1)C(=O)N[C@@H](CO)C(=O)N[C@H](Cc1ccc(O)cc1)C(=O)N[C@H](CCCCNC(N)=O)C(=O)N[C@@H](CC(C)C)C(=O)N[C@@H](CCCCNC(C)C)C(=O)N1CCC[C@H]1C(=O)N[C@H](C)C(N)=O [teverelix, Ac-D-Nal-D-pClPhe-D-Pal-Ser-Tyr-D-Hci-Leu-Lys(iPr)-Pro-D-Ala-NH2] (Ac-[d2Nal][Phe(4-Cl)][d3Pal]S[dY][d(hCit)]L[Lys(iPr)]P[dA]-NH2)				only mild local indurations	tolerated well
